From patent publication US20140171316A1, “ANTHRANILAMIDE COMPOUNDS AND THEIR USE AS PESTICIDES” (BASF SE, priority 2011, published 2014)

Experiments:
Type in all cases: in vivo
[1] = test system: Dichromothrips corbetti; assay: Orchid thrips (Dichromothrips corbetti) floral-immersion test; conditions: dipped orchid flowers, adult thrips, 72 hours after treatment, read-out: mortality in comparison with untreated controls
Method: Dichromothrips corbetti adults used for bioassay were obtained from a colony maintained continuously under laboratory conditions. For testing purposes, the test compound was diluted in a 1:1 mixture of acetone:water (vol:vol), plus 0.01% vol/vol Alkamuls® EL 620 surfactant.
Thrips potency of each compound was evaluated by using a floral-immersion technique. Plastic petri dishes were used as test arenas. All petals of individual, intact orchid flowers were dipped into treatment solution and allowed to dry. Treated flowers were placed into individual petri dishes along with about 20 adult thrips. The petri dishes were then covered with lids. All test arenas were held under continuous light and a temperature of about 28° C. for duration of the assay. After 3 days, the numbers of live thrips were counted on each flower, and along inner walls of each petri dish. The percent mortality was recorded 72 hours after treatment.

[2] = test system: Anthonomus grandis; assay: Boll weevil (Anthonomus grandis) microtiter plate insect diet test; conditions: 120 h, sprayed onto insect diet, 5 days, read-out: mortality in comparison with untreated controls (egg and larval mortality)
Method: For evaluating control of boll weevil (Anthonomus grandis) the test unit consisted of 24-well-microtiter plates containing an insect diet and 20-30 A. grandis eggs.
The compounds were formulated using a solution containing 75% v/v water and 25% v/v DMSO. Different concentrations of formulated compounds were sprayed onto the insect diet at 20 μl, using a custom built micro atomizer, at two replications.
After application, microtiter plates were incubated at about 23±1° C. and about 50±5% relative humidity for 5 days. Egg and larval mortality was then visually assessed.

[3] = test system: Megoura viciae; assay: Vetch aphid (Megoura viciae) broad bean leaf disk test; conditions: foliar, 120 h, sprayed broad bean leaf disks, adult aphids, 5 days, read-out: mortality in comparison with untreated controls
Method: For evaluating control of vetch aphid (Megoura viciae) through contact or systemic means the test unit consisted of 24-well-microtiter plates containing broad bean leaf disks.
The compounds were formulated using a solution containing 75% v/v water and 25% v/v DMSO. Different concentrations of formulated compounds were sprayed onto the leaf disks at 2.5 μl, using a custom built micro atomizer, at two replications.
After application, the leaf disks were air-dried and 5-8 adult aphids placed on the leaf disks inside the microtiter plate wells. The aphids were then allowed to suck on the treated leaf disks and incubated at about 23±1° C. and about 50±5% relative humidity for 5 days. Aphid mortality and fecundity was then visually assessed.

[4] = test system: Heliothis virescens; assay: Tobacco budworm (Heliothis virescens) microtiter plate insect diet test; conditions: 120 h, sprayed onto insect diet, 5 days, read-out: mortality in comparison with untreated controls (egg and larval mortality)
Method: For evaluating control of tobacco budworm (Heliothis virescens) the test unit consisted of 96-well-microtiter plates containing an insect diet and 15-25 H. virescens eggs.
The compounds were formulated using a solution containing 75% v/v water and 25% v/v DMSO. Different concentrations of formulated compounds were sprayed onto the insect diet at 10 μl, using a custom built micro atomizer, at two replications.
(§1) After application, microtiter plates were incubated at about 28±1° C. and about 80±5% relative humidity for 5 days. Egg and larval mortality was then visually assessed.

[5] = test system: Ceratitis capitata; assay: Mediterranean fruitfly (Ceratitis capitata) microtiter plate insect diet test; conditions: 120 h, sprayed onto insect diet, 5 days, read-out: mortality in comparison with untreated controls (egg and larval mortality)
Method: For evaluating control of Mediterranean fruitfly (Ceratitis capitata) the test unit consisted of microtiter plates containing an insect diet and 50-80 C. capitata eggs.
The compounds were formulated using a solution containing 75% v/v water and 25% v/v DMSO. Different concentrations of formulated compounds were sprayed onto the insect diet at 5 μl, using a custom built micro atomizer, at two replications.
as §1

[6] = test system: Myzus persicae; assay: Green peach aphid (Myzus persicae) spray test on bell pepper plants; conditions: 120 h, sprayed infested bell pepper plants, after 5 days, read-out: mortality in comparison with untreated controls
Excerpt: The active compounds were formulated in cyclohexanone as a 10,000 ppm solution supplied in tubes. The tubes were inserted into an automated electrostatic sprayer equipped with an atomizing nozzle and they served as stock solutions for which lower dilutions were made in 50% acetone:50% water (v/v). A nonionic surfactant (Kinetic®) was included in the solution at a volume of 0.01% (v/v).
Bell pepper plants at the first true-leaf stage were infested prior to treatment by placing heavily infested leaves from the main colony on top of the treatment plants. Aphids were allowed to transfer overnight to accomplish an infestation of 30-50 aphids per plant and the host leaves were removed. The infested plants were then sprayed by an automated electrostatic plant sprayer equipped with an atomizing spray nozzle. The plants were dried in the sprayer fume hood, removed, and then maintained in a growth room under fluorescent lighting in a 24-hr photoperiod at about 25° C. and about 20-40% relative humidity. Aphid mortality on the treated plants, relative to mortality on untreated control plants, was determined after 5 days.

[7] = test system: Aphis craccivora; assay: Cowpea aphid (Aphis craccivora) spray test on potted cowpea plants; conditions: sprayed cowpea plants, assessed after 72 hours, read-out: mortality in comparison with untreated controls
Method: The active compound was dissolved at the desired concentration in a mixture of 1:1 (vol:vol) distilled water:acetone. Surfactant (Alkamuls® EL 620) is added at a rate of 0.1% (vol/vol). The test solution was prepared at the day of use.
Potted cowpea plants were colonized with approximately 50-100 aphids of various stages by manually transferring a leaf tissue cut from infested plant 24 hours before application. Plants were sprayed after the pest population has been recorded. Treated plants were maintained on light carts at about 28° C. Percent mortality was assessed after 72 hours.

CNC(=O)c1cc(/C=N/OC)cc(C)c1NC(=O)c1cnn(CC(F)(F)F)c1-c1ncccc1Cl [Compound 1-1, 5-(3-chloro-2-pyridyl)-N-[4-[(E)-methoxyiminomethyl]-2-methyl-6-(methylcarbamoyl)phenyl]-1-(2,2,2-trifluoroethyl)pyrazole-4-carboxamide]
> 75%: mortality at 500 ppm [1] | mortality at 2500 ppm [2] | mortality at 2500 ppm [3] | mortality at 2500 ppm [4] | mortality at 2500 ppm [5] | mortality at 2500 ppm [6] | mortality at 500 ppm [7]

CNC(=O)c1cc(-n2cncn2)cc(C)c1NC(=O)c1cnn(CC(F)(F)F)c1-c1ncccc1Cl [Compound 1-2, 5-(3-chloro-2-pyridyl)-N-[2-methyl-6-(methylcarbamoyl)-4-(1,2,4-triazol-1-yl)phenyl]-1-(2,2,2-trifluoroethyl)pyrazole-4-carboxamide]
> 75%: mortality at 500 ppm [1] | mortality at 2500 ppm [2] | mortality at 2500 ppm [3] | mortality at 2500 ppm [4] | mortality at 2500 ppm [5] | mortality at 2500 ppm [6] | mortality at 500 ppm [7]
